Laboratory results: patent US6716603B2, “Nucleic acids encoding a chloride channel protein” (Genaera Corporation, priority 1998, dated 2004)

What was measured:
IL-9 induced eotaxin = IL-9 induced eotaxin production in murine primary lung cultures (eotaxin ELISA); assay type: cell-based, mouse; conditions: 100 μM channel blocker, FVB primary lung cultures with mIL-9, FIG. 18
Text: IL-9 is known to induce eotaxin from lung epithelial cells (Dong, et.al., submitted for publication, Eur. J. Immunol.). In situ expression analysis of IL-9 transgenic mice found ICACC-1 expression to be predominant in airway epithelial cells. These epithelial cells also produce eotaxin, and eotaxin can be induced by IL-9 in these cells as well as primary lung cultures from a variety of different mouse strains. Because eotaxin and ICACC-1 are both induced by IL-9 in lung epithelial cells, it is possible that inhibiting ICACC-1 can inhibit eotaxin or other cytokines such as IL-4 or IL-13 (Doucet et al., J. Clin. Invest. 101:2129-2139, 1998.) that induce eotaxin production in lung epithelial cells. To test this hypothesis, we employed a murine primary lung assays, where lung cells were harvested from FVB/NJ mice as described in Example 5A and processed for in vitro analysis as described in Example 6 for human primary lung culture. Cells were incubated with or without 20 ng/ml recombinant mIL-9 for 48 hours. After 48 hours, conditioned supernatant was collected and analyzed for murine eotaxin production using an eotaxin ELISA kit (R&D Systems). Recombinant murine eotaxin was used to generate a standard curve. […] A culture derived from IL-9 transgenic mouse lung (TG5 lane) was used as a positive control. […]

ICACC-1 = ICACC-1 RNA expression in lung after intratracheal IL-9 (RT-PCR); assay type: in vivo, mouse; conditions: C57B6 mice, 50 μl of 0.1 mg/ml IL-9 intratracheal daily for ten days, FIG. 8
Description: Message was analyzed by PCR as described (Nicolaides et al., 1995) and via Northern blot. Primers used to generate murine ICACC-1 message were; sense 5′-[…]-3′ (SEQ ID NO:7) (nucleotides 689-712) and antisense 5′-[…]-3′ (SEQ ID NO:8) (nucleotides 1041-1064) which produce a gene product of 376 bp. DHFR was assayed as an internal control to measure for cDNA integrity using primers previously described (Nicolaides et al., 1991). Amplification conditions used were 95° C. for 30 seconds, 58° C. for 1.5 minutes and 72° C. for 1.5 minutes for 35 cycles. For Northern blot analysis, total RNA derived from Tg5 or FVB lungs was electrophoresed on 1.5% formaldehyde gels, transferred to nylon membranes and probed with a DNA fragment comprising the murine ICACC-1 cDNA.
To confirm that the expression of IL-9 was critically related to the expression of ICACC-1 and to control for genetic background specifically, recombinant murine IL-9 was introduced into the lung of murine strain C57B6. Recombinant IL-9 was instilled into the trachea of anesthetized mice by addition of 50 μl of a 0.1 mg/ml IL-9 solution or vehicle alone (0.1% bovine serum albumin) daily for ten days. […]
Expression of ICACC-1 RNA was measured as described in Example 3.

Molecule | eotaxin production inhibited (IL-9 induced eotaxin) | ICACC-1 RNA expression in lung (RT-PCR) (ICACC-1)
CC(=O)Nc1ccc(C=Cc2ccc(N=C=S)cc2S(=O)(=O)O)c(S(=O)(=O)O)c1 [SITS] | 41% | 
O=S(=O)(O)c1cc(N=C=S)ccc1C=Cc1ccc(N=C=S)cc1S(=O)(=O)O [DIDS] | 33% | 
mIL-9: recombinant murine IL-9 (protein, UniProt P15247 19-144, looked up) Interleukin-9: QRCSTTWGIRDTNYLIENLKDDPPSKCSCSGNVTSCLCLSVPTDDCTTPCYREGLLQLTNATQKSRLLPVFHRVKRIVEVLKNITCPSFSCEKPCNQTMAGNTLSFLKSLLGTFQKTEMQRQKSRP |  | expression increased
